Read-outs that look alike come from different tables or passages of the source. Blank lines part the entries; values can stand above or below the compound they belong to. Where a SMILES comes first, the peptide text is derived from it. Bridges are numbered along the chain shown (N, C = ends). [ ]: non-standard residue; d: D form.
What was measured:
[1] = set-up: species or system SD rats; conditions: rat, in vivo
Source text: (§1) Laboratory Animals: Adult Male SD Rats.
(§2) The plasma was collected and subjected to quick freezing.

in vivo [2] = conditions: male, SD, rat
[3] = rat, in vivo
[4] = PK test for small-intestinal administration of rInsulin (ELISA); format: in vivo; conditions: SD rats; small-intestinal administration at 200 μg/kg without composition
Source text: as §1, §2

in vivo [5] = experiment: in vivo; set-up: species or system SD rats; conditions: male, SD, rat
Source text: The composition of the present invention: polyethylene glycol 4000, carbomer, chitosan oligosaccharide, and citric acid, in a weight ratio of 19:6:6:60.
as §1, §2

- bioavailability [1]: 1.22%
Compound: CC[C@H](C)[C@@H]1NC(=O)[C@H](CCCNC(=N)N)NC(=O)[C@H](CC(=O)O)NC(=O)[C@H](CCSC)NC(=O)[C@H](CCCCN)NC(=O)[C@H](CCCNC(=N)N)NC(=O)CNC(=O)[C@H](Cc2ccccc2)NC(=O)[C@@H](NC(=O)CNC(=O)[C@H](CO)NC(=O)CNC(=O)[C@H](CCC(N)=O)NC(=O)[C@@H](NC(=O)[C@H](CCSC)NC(=O)[C@H](CCCCN)NC(=O)[C@@H]2CCCN2C(=O)[C@@H](N)CO)C(C)C)CSSC[C@@H](C(=O)N[C@@H](CCCCN)C(=O)N[C@H](C(=O)N[C@@H](CC(C)C)C(=O)N[C@@H](CCCN=C(N)N)C(=O)N[C@@H](CCCN=C(N)N)C(=O)N[C@@H](Cc2cnc[nH]2)C(=O)O)C(C)C)NC(=O)CNC(=O)[C@H](CC(C)C)NC(=O)CNC(=O)[C@H](CO)NC(=O)[C@H](CO)NC(=O)[C@H](CO)NC(=O)[C@H](CO)NC1=O [Nesiritide]

- bioavailability (in vivo [2]): 1.69%
Compound: CC(C)[C@@H]1NC(=O)[C@H](CCCCN)NC(=O)[C@@H](Cc2c[nH]c3ccccc23)NC(=O)[C@H](Cc2ccc(O)cc2)NC(=O)[C@@H](NC(=O)[C@H](N)Cc2ccccc2)CSSC[C@@H](C(=O)N[C@@H](Cc2c[nH]c3ccccc23)C(N)=O)NC1=O [Vapreotide] (H-[dF]CY[dW]KVCW-NH2; disulfide 2-7)

- bioavailability [3]: 1.66%
Compound: CC[C@H](C)[C@H](NC(=O)[C@H](CO)NC(=O)[C@H](CCCCN)NC(=O)CNC(=O)[C@H](CCCCN)NC(=O)[C@H](CC(=O)O)NC(=O)[C@H](Cc1cnc[nH]1)NC(=O)[C@H](CC(C)C)NC(=O)[C@H](CC(C)C)NC(=O)[C@H](CCC(N)=O)NC(=O)[C@H](Cc1cnc[nH]1)NC(=O)[C@H](CCC(=O)O)NC(=O)[C@H](CO)NC(=O)[C@@H](NC(=O)[C@H](C)N)C(C)C)C(=O)N[C@@H](CCC(N)=O)C(=O)N[C@@H](CC(=O)O)C(=O)N[C@@H](CC(C)C)C(=O)N[C@@H](CCCNC(=N)N)C(=O)N[C@@H](CCCNC(=N)N)C(=O)N[C@@H](CCCNC(=N)N)C(=O)N[C@@H](CCC(=O)O)C(=O)N[C@@H](CC(C)C)C(=O)N[C@@H](CC(C)C)C(=O)N[C@@H](CCC(=O)O)C(=O)N[C@@H](CCCCN)C(=O)N[C@@H](CC(C)C)C(=O)N[C@@H](CC(C)C)C(=O)NC(C)(C)C(=O)N[C@@H](CCCCN)C(=O)N[C@@H](CC(C)C)C(=O)N[C@@H](Cc1cnc[nH]1)C(=O)N[C@H](C(=O)N[C@@H](C)C(N)=O)[C@@H](C)O [Abaloparatide]

Compound: rInsulin: Recombinant Insulin (rInsulin)
- blood concentration [4]: lower than the detection limit of ELISA

- bioavailability (in vivo [5]): 1.32%
Compound: CCNC(=O)[C@@H]1CCCN1C(=O)[C@H](CCCNC(=N)N)NC(=O)[C@H](CC(C)C)NC(=O)[C@@H](CC(C)C)NC(=O)[C@H](Cc1ccc(O)cc1)NC(=O)[C@H](CO)NC(=O)[C@H](Cc1c[nH]c2ccccc12)NC(=O)[C@H](Cc1c[nH]cn1)NC(=O)[C@@H]1CCC(=O)N1 [Leuprolide]
